What all share (type): biochemical
The target in experiment [1] is hCA I (Homo sapiens, UniProt P00915). The experiment is described as follows: biochemical. Particulars: for IC50: esterase method; for Ki: from Lineweaver-Burk graphs, mean ± SD. The method, then:
(§1) […] Both hCA isoforms were purified by using the Sepharose-4B-L-Tyrosine-sulfanilamide affinity technique. Then, the purity of these CA isoenzymes was defined via the SDS-PAGE purity technique.
(§2) In order to investigate the in vitro inhibitory mechanisms of bromophenols (13–21), kinetic studies were performed at different concentrations of bromophenols and various substrates.

For experiment [2], the target named is hCA II (Homo sapiens, UniProt P00918). The experiment is described as follows: biochemical. Conditions: for IC50: esterase method; for Ki: from Lineweaver-Burk graphs, mean ± SD. The method, then: as §1, §2
Experiment [3] has as its target AChE (Electrophorus electricus, UniProt O42275). The experiment is described as follows: AChE inhibition, Ellman's method at 412 nm, acetylthiocholine iodide substrate. Conditions: for IC50: Ellman's method; for Ki: from Lineweaver-Burk graphs, mean ± SD. The method, then:
Acetylthiocholine iodide (AChI) was used as substrate, according to a prior study. […]
as §2

[4] abbreviates: 19 and 21 compared (hydroxyl instead of methyl).

hCA I, sequence (P00915 whole entry, canonical isoform): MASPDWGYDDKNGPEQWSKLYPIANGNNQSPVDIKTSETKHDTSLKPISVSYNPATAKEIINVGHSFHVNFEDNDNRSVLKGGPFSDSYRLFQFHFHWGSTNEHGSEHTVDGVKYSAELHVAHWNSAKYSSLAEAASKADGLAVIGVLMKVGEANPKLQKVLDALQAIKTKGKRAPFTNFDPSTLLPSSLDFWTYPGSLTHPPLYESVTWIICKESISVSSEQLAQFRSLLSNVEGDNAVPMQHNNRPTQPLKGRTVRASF
AChE, sequence (O42275 24-633): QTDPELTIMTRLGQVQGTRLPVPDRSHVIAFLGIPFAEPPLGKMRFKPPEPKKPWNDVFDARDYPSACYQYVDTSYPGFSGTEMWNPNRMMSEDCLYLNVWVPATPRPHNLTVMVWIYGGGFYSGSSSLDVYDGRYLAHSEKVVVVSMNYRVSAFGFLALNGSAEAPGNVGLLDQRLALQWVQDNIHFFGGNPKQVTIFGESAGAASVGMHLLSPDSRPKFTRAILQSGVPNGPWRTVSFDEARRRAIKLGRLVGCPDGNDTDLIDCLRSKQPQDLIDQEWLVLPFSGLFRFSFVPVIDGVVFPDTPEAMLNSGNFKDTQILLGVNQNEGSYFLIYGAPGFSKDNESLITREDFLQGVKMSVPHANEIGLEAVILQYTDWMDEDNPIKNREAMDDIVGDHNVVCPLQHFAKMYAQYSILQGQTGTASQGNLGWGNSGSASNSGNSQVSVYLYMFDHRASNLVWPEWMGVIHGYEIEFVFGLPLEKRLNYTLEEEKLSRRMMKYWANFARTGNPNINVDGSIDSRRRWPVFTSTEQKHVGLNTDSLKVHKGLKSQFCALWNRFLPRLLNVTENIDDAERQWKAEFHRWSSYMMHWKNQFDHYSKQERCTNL

A word on the IC50: it is the concentration that inhibits the measured activity by half. One may read the Ki as a dissociation constant, usually derived from enzyme kinetics or from competition with a known ligand. High values mean weaker binding, low ones tighter binding. Turning to `COc1ccc(Cc2cc(OC)c(OC)cc2Br)c(Br)c1` [Compound 13, 1-Bromo-2-(2-bromo-4-methoxybenzyl)-4,5-dimethoxybenzene], the results for the IC50 in experiment [1] and in experiment [2] were 38.5 nM and 21 nM, respectively. Besides, the figures for the Ki in experiment [1] and in experiment [2] were 25.7 ± 4.58 nM and 1.63 ± 0.11 nM, respectively.
In the case of `Oc1ccc(O)c(Cc2cc(O)c(O)cc2Br)c1` [Compound 21, 4-Bromo-5-(2,5-dihydroxybenzyl)benzene-1,2-diol], in experiment [1], 12.4 nM corresponded to half-maximal inhibition (IC50) and the inhibition constant (Ki) amounted to 11 ± 3.83 nM. Moreover, the “fold increase in the inhibition value, hCA II” value in experiment [2] (setting [4]) was determined as 3.03 fold. In addition, in experiment [2], the IC50 stood at 7.45 nM and affinity was put at a Ki of 4.97 ± 0.59 nM. In addition, the “fold increase in the inhibition value, AChE” value in experiment [3] (setting [4]) is given as 2.67 fold.
In the case of `Oc1cc(Br)c(Cc2cc(O)c(Br)cc2O)cc1O` [Compound 20, 4-Bromo-5-(4-bromo-2,5-dihydroxybenzyl)benzene-1,2-diol], in experiment [1], the 50% inhibitory concentration (IC50) turned out to be 19.3 nM and the inhibitory constant (Ki) was 13.4 ± 2.29 nM. Also, in experiment [2], half-maximal inhibition (IC50) required 14.1 nM and the inhibition constant Ki turned out to be 6.21 ± 1.01 nM.
Take “4-Bromo-5-(2-bromo-4-hydroxybenzyl)benzene-1,2-diol [Compound 19]”: in experiment [3], the IC50 was 20.4 nM and the Ki turned out to be 17.4 ± 3.15 nM.
In the case of `COc1cc(Cc2cc(OC)c(OC)cc2Br)c(OC)cc1Br` [Compound 15, 1-Bromo-2-(4-bromo-2,5-dimethoxybenzyl)-4,5-dimethoxybenzene], the “fold decrease in the Ki value, hCA I” value in experiment [1] (15 compared with 16 (bromo group at 4th position)) came out at 1.37 fold. Besides, in experiment [1], the IC50 is 20.4 nM and the Ki is 9.35 ± 1.88 nM. In experiment [2], the IC50 was 15.1 nM and the Ki was 2.62 ± 0.13 nM.
On to `COc1cc(Br)c(Cc2ccc(OC)c(OC)c2OC)cc1OC` [Compound 17, 1-(2-bromo-4,5dimethoxybenzyl)-2,3,4-trimethoxybenzene], for which the results for the 50% inhibitory concentration (IC50) in experiment [1] and in experiment [2] were 27.7 nM and 23.1 nM, respectively. Further, the results for the Ki in experiment [1] and in experiment [2] were 18.8 ± 4.97 nM and 10.3 ± 1.88 nM, respectively.
As to “1-Bromo-4,5-dimethoxy-2-(5-methoxy-2-methylbenzyl)benzene [Compound 14]”, the “fold greater effect on inhibition, hCA I” value in experiment [1] (14 (methyl) compared with 16 (methoxy)) is on record as 5.06 fold. Besides, the “fold difference in the inhibition value, hCA I” value in experiment [1] (compounds 14 and 19 compared) is reported as 8.04 fold. The half-maximal inhibitory concentration (IC50) in experiment [1] came out at 19.8 nM; in experiment [2], 14.7 nM; in experiment [3], 11.9 nM. In addition, the Ki worked out at 2.53 ± 0.25 nM in experiment [1], 4.28 ± 0.86 nM in experiment [2] and 11.6 ± 2.75 nM in experiment [3].
In the case of `COc1ccc(OC)c(Cc2cc(OC)c(OC)cc2Br)c1` [Compound 16, 1-Bromo-2-(2,5-dimethoxybenzyl)-4,5-dimethoxybenzene], in experiment [1], half-maximal inhibition (IC50) required 21 nM and the Ki came to 12.8 ± 0.52 nM. In experiment [2], this molecule displayed an IC50 of 15.8 nM and an inhibitory constant (Ki) of 7.77 ± 0.57 nM.
In experiment [1], `Oc1ccc(Cc2cc(O)c(O)cc2Br)c(Br)c1` [Compound 18, 4-Bromo-5-(2-bromo-4-hydroxybenzyl)benzene-1,2-diol] came in with an IC50 of 15.4 nM and an inhibition constant Ki of 12.5 ± 0.66 nM. Moreover, in experiment [2], the IC50 turned out to be 11.4 nM and the Ki came to 9.15 ± 1.36 nM.

The values are drawn from paper PMC9655968, “Synthesis of Novel Bromophenol with Diaryl Methanes—Determination of Their Inhibition Effects on Carbonic Anhydrase and Acetylcholinesterase” (Molecules, 2022).
